The supplement of paper PMC11061612

Experiments:
U-698-M [1] = experiment: combination Emax (second highest fraction inhibited in the dose matrix, 72 h); higher = more inhibition; conditions: B-Cell Non-Hodgkin's Lymphoma
In short: (§1)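 After 24 hours at 37°C and 5% CO2 in 1536-well plates, cells in DMEM/F12 or RPMI plus 10% FBS received two-drug dose matrices for 72 hours. Viability came from CellTiter-Glo 2.0 luminescence and was scaled as inhibition, anchored at 0 by vehicle wells and at 1 by blank wells. Combination Emax is taken as the second-highest inhibition in the matrix, and Bliss excess as the observed combination effect less EA + EB − EA·EB, with EA and EB the single-agent effects.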

U-698-M [2] = experiment: Bliss excess, mean over the matrix (fraction); higher = more synergy; conditions: U-[…], B-Cell Non-Hodgkin's Lymphoma
In short: as §1

[3] = first compound max 1 µM, partner max 1 µM, 7x7
[4] = first compound max 10 µM, partner max 1 µM
[5] = first compound max 10 µM, partner max 0.3 µM, 7x7
[6] = first compound max 10 µM, partner max 1 µM, 7x7
[7] = first compound max 10 µM, partner max 10 µM, 7x7
[8] = first compound max 10 µM, partner max 5 µM, 7x7
[9] = first compound max 1 µM, partner max 10 µM, 7x7
[10] = first compound max 1 µM, partner max 3 µM, 7x7
[11] = first compound max 1 µM, partner max 1 µM
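Wherever Bliss excess, mean over the matrix is given: after 72 h of two-drug dosing.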

`C[C@@H](c1ccc2nccn2c1)n1nnc2ncc(-c3cnn(C)c3)nc21` [Savolitinib] + Cc1c2c(nn1C)CSCc1cc(n(C)n1)CSc1cc(c3ccccc3c1)OCCCc1c(C(=O)O)n(C)c3c-2c(Cl)ccc13 [AZD5991] was tested, and the “combination Emax” value (U-698-M [1]; [3]) was 0.978 and the Bliss excess (U-698-M [2]; [3]) was -0.0477.

In the case of `Cn1cnc2c(F)c(Nc3ccc(Br)cc3Cl)c(C(=O)NOCCO)cc21` [Selumetinib] + C=CCn1c(=O)c2cnc(Nc3ccc(N4CCN(C)CC4)cc3)nc2n1-c1cccc(C(C)(C)O)n1 [AZD1775], the “combination Emax” value (U-698-M [1]; [4]) was 0.892 and the Bliss excess (U-698-M [2]; [4]) was -0.0472.

With `Cn1cnc2c(F)c(Nc3ccc(Br)cc3Cl)c(C(=O)NOCCO)cc21` [Selumetinib] + CC(C)n1c(=O)n(C)c2cnc3cc(F)c(-c4ccc(OCCCN5CCCCC5)nc4)cc3c21 [AZD1390] the “combination Emax” value (U-698-M [1]; [5]) was 0.109 and the Bliss excess (U-698-M [2]; [5]) was -0.0149.

In the case of `Cn1cnc2c(F)c(Nc3ccc(Br)cc3Cl)c(C(=O)NOCCO)cc21` [Selumetinib] + CCN(CCO)CCCOc1ccc2c(Nc3cc(CC(=O)Nc4cccc(F)c4)[nH]n3)ncnc2c1 [AZD2811], the “combination Emax” value (U-698-M [1]; [6]) was 0.253 and the Bliss excess (U-698-M [2]; [6]) was 0.0099.

For `Cn1cnc2c(F)c(Nc3ccc(Br)cc3Cl)c(C(=O)NOCCO)cc21` [Selumetinib] + C[C@@H]1COCCN1C2=NC(=NC(=C2)C3(CC3)[S@](=N)(=O)C)C4=C5C=CNC5=NC=C4 [AZD6738], the “combination Emax” value (U-698-M [1]; [7]) was 0.766 and the Bliss excess (U-698-M [2]; [7]) was -0.0501.

In the case of `Cc1nc(-c2cn3c(n2)-c2ccc(-c4cnn(C(C)(C)C(N)=O)c4)cc2OCC3)n(C(C)C)n1` [Taselisib] + O=C(Nc1ccc2[nH]nc(-c3ccncc3)c2c1)[C@@H]1CCN(CC(=O)N2CCN(c3ccc(-c4ncccn4)cc3)CC2)C1 [SCH772984], the “combination Emax” value (U-698-M [1]; [8]) was 0.606 and the Bliss excess (U-698-M [2]; [8]) was -0.0189.

`CC(=O)Nc1cccc(-n2c(=O)n(C3CC3)c(=O)c3c(Nc4ccc(I)cc4F)n(C)c(=O)c(C)c32)c1` [Trametinib] + Cc1nc(-c2cn3c(n2)-c2ccc(-c4cnn(C(C)(C)C(N)=O)c4)cc2OCC3)n(C(C)C)n1 [Taselisib] was tested, and the “combination Emax” value (U-698-M [1]; [9]) was 0.416 and the Bliss excess (U-698-M [2]; [9]) was -0.0211.

For `CC1(C)CCC(CN2CCN(c3ccc(C(=O)NS(=O)(=O)c4ccc(NCC5CCOCC5)c([N+](=O)[O-])c4)c(Oc4cnc5[nH]ccc5c4)c3)CC2)=C(c2ccc(Cl)cc2)C1` [Venetoclax] + C1CN(CCC1(C(=O)N[C@@H](CCO)C2=CC=C(C=C2)Cl)N)C3=NC=NC4=C3C=CN4 [Capivasertib], the “combination Emax” value (U-698-M [1]; [10]) was 0.756 and the Bliss excess (U-698-M [2]; [10]) was -0.0112.

`CC1(C)CCC(CN2CCN(c3ccc(C(=O)NS(=O)(=O)c4ccc(NCC5CCOCC5)c([N+](=O)[O-])c4)c(Oc4cnc5[nH]ccc5c4)c3)CC2)=C(c2ccc(Cl)cc2)C1` [Venetoclax] + C=CCn1c(=O)c2cnc(Nc3ccc(N4CCN(C)CC4)cc3)nc2n1-c1cccc(C(C)(C)O)n1 [AZD1775] was tested, and the “combination Emax” value (U-698-M [1]; [11]) was 0.978 and the Bliss excess (U-698-M [2]; [11]) was 0.109.

With `CC1(C)CCC(CN2CCN(c3ccc(C(=O)NS(=O)(=O)c4ccc(NCC5CCOCC5)c([N+](=O)[O-])c4)c(Oc4cnc5[nH]ccc5c4)c3)CC2)=C(c2ccc(Cl)cc2)C1` [Venetoclax] + CCN(CCO)CCCOc1ccc2c(Nc3cc(CC(=O)Nc4cccc(F)c4)[nH]n3)ncnc2c1 [AZD2811] the “combination Emax” value (U-698-M [1]; [3]) was 0.6 and the Bliss excess (U-698-M [2]; [3]) was -0.0213.

In the case of `CC1(C)CCC(CN2CCN(c3ccc(C(=O)NS(=O)(=O)c4ccc(NCC5CCOCC5)c([N+](=O)[O-])c4)c(Oc4cnc5[nH]ccc5c4)c3)CC2)=C(c2ccc(Cl)cc2)C1` [Venetoclax] + CN(C)CCCOc1ccc(-c2ccc3ncc4c(c3c2)n(C2CCOCC2)c(=O)n4C)cn1 [AZD0156], the “combination Emax” value (U-698-M [1]; [3]) was 0.72 and the Bliss excess (U-698-M [2]; [3]) was 0.0133.

For `CC1(C)CCC(CN2CCN(c3ccc(C(=O)NS(=O)(=O)c4ccc(NCC5CCOCC5)c([N+](=O)[O-])c4)c(Oc4cnc5[nH]ccc5c4)c3)CC2)=C(c2ccc(Cl)cc2)C1` [Venetoclax] + COc1cc(Nc2ncc3c(n2)-c2ccc(Cl)cc2C(c2c(F)cccc2OC)=NC3)ccc1C(=O)O [Alisertib], the “combination Emax” value (U-698-M [1]; [9]) was 0.592 and the Bliss excess (U-698-M [2]; [9]) was 0.0827.

`CC1(C)CCC(CN2CCN(c3ccc(C(=O)NS(=O)(=O)c4ccc(NCC5CCOCC5)c([N+](=O)[O-])c4)c(Oc4cnc5[nH]ccc5c4)c3)CC2)=C(c2ccc(Cl)cc2)C1` [Venetoclax] + CS(=O)(=O)CCNCc1ccc(-c2ccc3ncnc(Nc4ccc(OCc5cccc(F)c5)c(Cl)c4)c3c2)o1 [Lapatinib] was tested, and the “combination Emax” value (U-698-M [1]; [9]) was 0.503 and the Bliss excess (U-698-M [2]; [9]) was -0.0151.

`CC1(C)CCC(CN2CCN(c3ccc(C(=O)NS(=O)(=O)c4ccc(NCC5CCOCC5)c([N+](=O)[O-])c4)c(Oc4cnc5[nH]ccc5c4)c3)CC2)=C(c2ccc(Cl)cc2)C1` [Venetoclax] + C[C@@H]1COCCN1C2=NC(=NC(=C2)C3(CC3)[S@](=N)(=O)C)C4=C5C=CNC5=NC=C4 [AZD6738] was tested, and the “combination Emax” value (U-698-M [1]; [9]) was 0.86 and the Bliss excess (U-698-M [2]; [9]) was -0.0392.

For `CC1(C)CCC(CN2CCN(c3ccc(C(=O)NS(=O)(=O)c4ccc(NCC5CCOCC5)c([N+](=O)[O-])c4)c(Oc4cnc5[nH]ccc5c4)c3)CC2)=C(c2ccc(Cl)cc2)C1` [Venetoclax] + C[C@@H](Nc1cc(F)cc(F)c1)c1cc(C(=O)N(C)C)cc2c(=O)cc(N3CCOCC3)oc12 [AZD8186], the “combination Emax” value (U-698-M [1]; [10]) was 0.564 and the Bliss excess (U-698-M [2]; [10]) was -0.0045.

In the case of `CC1(C)CCC(CN2CCN(c3ccc(C(=O)NS(=O)(=O)c4ccc(NCC5CCOCC5)c([N+](=O)[O-])c4)c(Oc4cnc5[nH]ccc5c4)c3)CC2)=C(c2ccc(Cl)cc2)C1` [Venetoclax] + Cc1cc2ncnn2cc1Nc1ncc2c(n1)n(C1CCOCC1)c(=O)n2C [AZD7648], the “combination Emax” value (U-698-M [1]; [9]) was 0.57 and the Bliss excess (U-698-M [2]; [9]) was 0.041.

In the case of `CC1(C)CCC(CN2CCN(c3ccc(C(=O)NS(=O)(=O)c4ccc(NCC5CCOCC5)c([N+](=O)[O-])c4)c(Oc4cnc5[nH]ccc5c4)c3)CC2)=C(c2ccc(Cl)cc2)C1` [Venetoclax] + Cn1cnc2c(F)c(Nc3ccc(Br)cc3Cl)c(C(=O)NOCCO)cc21 [Selumetinib], the “combination Emax” value (U-698-M [1]; [10]) was 0.408 and the Bliss excess (U-698-M [2]; [10]) was -0.0473.
